Data as given in patent publication US7223733B2, “Modulation of TRIP-Br function and method of treating proliferative disorders” (National University of Singapore, priority 2004, dated 2007).
Where no end group is shown, it is not given here. [invdT] = inverted (3'-3') thymidine

Assays:
Type in all cases: cell-based, human
[1] = tested on: KRIP-1-associated co-activating function on GAL4-TRIP-Br transcriptional activity; assay: GAL4-TRIP-Br/KRIP-1 luciferase reporter assay in U2OS cells; details: 50 μM decoy peptide
Experimental: DNA Transfection and Sequential β-Galactosidase/Luciferase Assay. For luciferase reporter assays, U2OS cells were cultured in 6-well dishes and transfected 24 h later with various reporter plasmids by the calcium precipitation method as previously described (Martin, K., et al. Nature 375, 691-694 (1995)). 24 h following precipitate removal, cells were exposed for 5 h to either vehicle (0.5% DMSO) or 50 μM of decoy peptide, prior to harvesting. Cells were scraped in 200 μl of lysis buffer and a single 10 μl aliquot of lysate was immediately used for sequential measurement of β-galactosidase and luciferase activity using the Dual Light System (Tropix). For protein overexpression experiments, U2OS cells were cultured in 6-well plates at a density of 1×10^5 cells/well and transfected 24 h later with Superfect reagent (QIAGEN).
FIG. 1: TRIP-Br decoy peptides antagonize KRIP-1/TRIP-Br PHD-bromodomain interactions. […] GAL4-KRIP-1 was specifically immunoprecipitated by the agarose-conjugated anti-GAL4 antibody (Lanes 3-5 & 7–10) but not by the non-specific control anti-cyclin E antibody (Lane 6); (B) Antagonism of PHD-bromodomain interactions in vivo. U2OS cells were transiently transfected with 0.4 μg of the indicated GAL4 expression constructs and 1.2 μg of pMT3A/KRIP-1, along with 0.4 μg of the minimal luciferase reporter pG5-GL3 and 0.1 μg of the control reporter pCMV/β-gal. […]

PARP cleavage = assay: Western blot analysis of PARP cleavage in U2OS cells; details: 50 μM decoy peptides, 72 h
Experimental: Denaturing SDS-PAGE and western blotting. Proteins from whole cell lysate and IP complexes were separated using standard denaturing polyacrylamide gel electrophoresis as described previously (Hsu, S. I. H., et al. EMBO J 20, 2273-2285 (2001)).
FIG. 6: Caspase assay. (A) Caspase 3 protease activity in U2OS cells exposed to either Eto (Etoposide) for 24 h or 50 μM decoy peptides for 48 or 72 h, were assayed using the Ac-DEVD-AFC fluorogenic substrate. […] Values represent the average +/− standard deviation of two independent experiments. Control: cells cultured in normal growth medium; Vehicle: cells cultured in the presence of 0.5% DMSO; (B) Western blot analysis of PARP cleavage. U2OS cells were exposed to either Eto (Etoposide) for 24 h or 50 μM decoy peptides for 72 h. Lane 1: Vehicle cells (cultured in the presence of 0.5% DMSO for 24 h); Lane 2: 25 μM Eto; Lane 3: 250 μM Eto; Lane 4: Vehicle (cells cultured in the presence of 0.5% DMSO for 72 h); Lane 5: *SCR; Lane 6: *Br1; Lane 7: *Br2.

WI-38 cells = assay: BrdU incorporation, E2F1/DP1 and cyclin E/Cdk2-induced S phase entry of quiescent WI-38 cells; details: quiescent WI-38, 0.1 μM
Experimental: Cell proliferation assays. For the BrdU incorporation assays, growth-quiescent WI-38 cells in 96-well dishes were transfected with DNA enzyme and/or 100 ng of pCMV/E2F1, pCMV/DP1, pRSV/Cyclin E, or pCMV/Cdk2 and then exposed to Bromodeoxyuridine (BrdU, 100 μM) in the presence or absence of 10% FBS for 20 h. Bromodeoxyuridine (BrdU) incorporation was monitored with a calorimetric ELISA assay using a cell proliferation kit according to manufacturer's recommendations (Boehringer Mannheim). For manual cell count, growth-quiescent WI-38 cells in 24-well dishes were transfected with DNA enzyme and then exposed to 10% FBS for 72 h. The cells were rinsed with PBS, pH 7.4, and trypsinized, and 10 μl of cell suspension was taken from each sample and mixed with equal volume of trypan blue stain (Sigma, 0.4% w/v in 1×PBS). The number of unstained cells was enumerated manually using a hemocytometer. For colony formation assays, growth-quiescent WI-38 cells in 12-well dishes were transfected with DNA enzyme and then exposed to 10% FBS for 120 h. Cells were stained in situ with crystal violet (0.75% w/v hexamethyl-p-rosaniline chloride [SIGMA], 50% ethanol, 1.75% w/v paraformaldehyde, 0.25% w/v NaCl) for 10 min, and then rinsed thoroughly with deionized water to remove excess stains.
FIG. 13: (A) E-Br1 or E-Br2 suppresses serum-inducible S phase entry. […]

Row | Substance | KRIP-1-associated co-activating function on GAL4-TRIP-Br transcriptional activity [1] | PARP cleavage compared to vehicle or *SCR-treated control (PARP cleavage) | S phase entry induced by co-expression of E2F1/DP1 and cyclin E/Cdk2 (WI-38 cells)
1 | ERQIKIWFQNRRMKWKKTGFLTDLTLDDILFADID (ERQIKIWFQNRRMKWKKTGFLTDLTLDDILFADID-NH2) [*Br2] | complete abolishment | not associated with significant PARP cleavage | –
2 | ERQIKIWFQNRRMKWKKATGCLLDDGLEGLFEDID (ERQIKIWFQNRRMKWKKATGCLLDDGLEGLFEDID-NH2) [*Br1] | complete abolishment | not associated with significant PARP cleavage | –
3 | 5′-T TACCCAACAGGCTAGCTACAACGAATATCACA-3′ (DNA TTACCCAACAGGCTAGCTACAACGAATATCACA; DNA, 3' [invdT], backbone not given here) [E-Br2] | – | – | does not influence
4 | 5′-T TGCTCAGCAGGCTAGCTACAACGACTTGCTCA-3′ (DNA TTGCTCAGCAGGCTAGCTACAACGACTTGCTCA; DNA, 3' [invdT], backbone not given here) [E-Br1] | – | – | does not influence
